Where two headings read alike, the source gives them in different places.
Key:
[1] = test system: HEK293T cell aminopeptidase activity (Ala-AMC cleavage); assay: Aminopeptidase assay with Ala-AMC in HEK293T cell extracts; assay type: biochemical, human; conditions: HEK293T cell extract; for effect on cleavage of Ala-AMC: 10 µM inhibitor; for residual amount of activity: 50 µM
Protocol: (§1) All enzyme assays described below were performed in the linear range of the assay, as determined from time-course studies. HEK293T cells were lysed by sonication in 50 mM TrisHCl buffer, pH 7.5, containing 40 mM KCl, 5 mM MgCl2, 0.5 mM ATP, and 1 mM DTT (Buffer 1).
(§2) To measure TPP2, the fluorescent substrate was Ala-Ala-Phe-AMC. Aminopeptidase (AP) assays were performed with Leu-AMC and Ala-AMC, which detect leucine aminopeptidase (LAP), puromycin-sensitive aminopeptidase (PSAP), and other enzymes. To measure the effect of aminopeptidase/proteasome inhibitors on cleavage of Ala-Ala-Phe-AMC and Leu-AMC, 1∶50 dilution of the cell extract was pre-incubated with the inhibitor and Buffer 1 for 30 min, followed by addition of 100 µM final concentration of the respective substrate. For Ala-AMC, the same dilution of the cell extract was pre-incubated with the inhibitor and 50 mM MOPS buffer, pH 7.5, containing 40 mM KCl, 5 mM MgCl2, 0.5 mM ATP, and 1 mM DTT (Buffer 2), followed by addition of 100 µM final concentration of the substrate. After incubation at 37°C for 1 hour, enzyme activity was quantified by fluorescence measurement of the substrate (380 nm excitation, 460 nm emission).
(§3) Figure 7 Effect of aminopeptidase inhibitors on Ala-AMC and Leu-AMC cleavage. HEK 293T cell extract (panels A–D) or recombinant PSAP (panels E–F) were treated with increasing concentrations of bestatin or puromycin for 30 minutes followed by the addition of substrate and incubation for 1 hour. Enzyme activity was determined by fluorescence measurement of AMC and expressed as percentage enzyme activity relative to the control without inhibitor. (A) Bestatin inhibition of HEK293T cell extract assayed with Ala-AMC. (B) Bestatin inhibition of HEK293T cell extract assayed with Leu-AMC. (C) Puromycin inhibition of HEK293T cell extract assayed with Ala-AMC. (D) Puromycin inhibition of HEK293T cell extract assayed with Leu-AMC. (E) Puromycin inhibition of purified PSAP assayed with Ala-AMC. (F) Puromycin inhibition of purified PSAP assayed with Leu-AMC. Error bars show standard error of mean (n = 4), points without error bars had error ranges smaller than the symbol size. Statistical analysis was performed using Student’s t-test: *, p≤0.05; **, p≤0.01; ***, p≤0.001; ns, no significant difference (p>0.05) versus the control.
(§4) Figure 8 Effect of proteasome inhibitors on Ala-AMC and Leu-AMC cleavage. HEK 293T cell extract or recombinant PSAP was treated with 10 µM of each of the proteasome inhibitors for 1 hour in addition to a 30 min pre-incubation without the substrate. Enzyme activity was determined by fluorescence measurement of AMC and expressed as percentage enzyme activity relative to the control without inhibitor. Panels A and B represent the effect of proteasome inhibitors on cleavage of Ala-AMC and Leu-AMC respectively, in HEK293T cell extract. […] Error bars show standard error of mean (n = 4). Statistical analysis was performed using Student’s t-test: *, p≤0.05; **, p≤0.01; ***, p≤0.001; ns, no significant difference (p>0.05) versus the control.

[2] = test system: HEK293T cell aminopeptidase activity (Leu-AMC cleavage); assay: Aminopeptidase assay with Leu-AMC in HEK293T cell extracts; assay type: biochemical, human; conditions: HEK293T cell extract; for effect on cleavage of Leu-AMC: 10 µM inhibitor
Protocol: as §1, §2, §3, §4

[3] = target: T1, recombinant human puromycin-sensitive aminopeptidase (PSAP, rhNPEPPS) (Homo sapiens, UniProt P55786); assay: Cleavage of Leu-AMC and Ala-AMC by purified recombinant PSAP; assay type: biochemical; conditions: for effect on cleavage of Ala-AMC by purified PSAP: 10 µM inhibitor
T1 construct: purchased R&D Systems
Protocol: To measure the effect of inhibitors on cleavage of Leu-AMC and Ala-AMC by purified PSAP, recombinant human PSAP (rhNPEPPS, R&D Systems) was diluted 1∶2000 in Buffer 2 containing 0.1 mg/ml BSA. The enzyme was pre-incubated with the inhibitor and Buffers 1 or 2, followed by addition of 100 µM final concentration of Leu-AMC (to the mix containing Buffer 1) and Ala-AMC (to the mix containing Buffer 2). After incubation at 37°C for 1 hour, PSAP activity was quantified by fluorescence measurement of the substrate (380 nm excitation, 460 nm emission).
as §3, §4

[4] = test system: HEK293T cells; assay: Quantitative peptidomics (TMAB isotopic labels, LC-MS/MS) of inhibitor-treated HEK293T cells; assay type: cell-based, human; conditions: HEK293T cells
Protocol: (§5) HEK293T and SH-SY5Y cells were grown to 80–90% confluence in DMEM and RPMI supplemented with 10% fetal bovine serum and penicillin/streptomycin. A single plate of cells (150 mm×25 mm) was used for each group. At the start of the experiment, media were removed from the plates and cells were washed with DPBS (138 mM NaCl, 8.06 mM Na2HPO4, 2.67 mM KCl, 1.47 mM KH2PO4, 0.9 mM CaCl2 and 0.49 mM MgCl2). This was followed by addition of serum-free media containing the proteasome or aminopeptidase inhibitors, or 0.05% DMSO as a control for the inhibitors that were soluble in DMSO. Each experiment consisted of two control groups and two or three replicate groups of cells treated with one of the inhibitors. The cells were incubated at 37°C for 20 minutes, following which media containing the inhibitor was removed, cells were washed with DPBS, detached from the plate by scraping into DPBS (without trypsin), and centrifuged at 800×g for 5 min. The wash buffer was supplemented with the appropriate inhibitor at the same concentration as used for the treatment, thereby ensuring that the changes induced in peptide levels were not reversed during harvesting of cells due to possible dissociation of the reversible inhibitors. The wash time (including centrifugation) was 15 minutes, for a total treatment time of 35 minutes. After centrifugation, the cell pellet was resuspended in 1 ml of 80°C water and incubated in an 80°C water bath for 20 minutes to inactivate proteases. The mixture was again centrifuged (13,000×g, 30 min, 4°C) and was stored at −80°C overnight. For peptide extraction, the samples were thawed and centrifuged again. The lysate was subsequently cooled on ice and acidified with HCl to a final concentration of 10 mM. After 15 min incubation on ice, the lysate was centrifuged at 13,000×g for 30 min at 4°C. To the supernatant, 250 µL of dibasic sodium phosphate (0.4 M, pH 9.5) was added and the mixture was stored at −80°C until labeling.
(§6) The labeling protocol has been earlier described in detail. Each group within an experiment (control/treated) was labeled with a different isotopic tag. The TMAB-NHS labels were dissolved in DMSO to a concentration of 400 µg/µL and 15 mg of label was used per 150 mm plate of cells. […] At the beginning, the pH of the peptide extract was adjusted to 9.5 with 1 M NaOH. Labeling was performed over 8 rounds; 4.69 µL of the label was added to the extract every 20 min. The pH was measured between each round and if necessary, brought back to 9.5 for the first five rounds. For rounds 6–8, the pH was not adjusted after the addition of the TMAB-NHS reagent. After the final round of label addition, the pH was adjusted to 9.5 again and the extracts were incubated at room temperature for 90 min. Thereafter, 30 µL of 2.5 M glycine was added to quench any unreacted label. Following 40 min incubation at room temperature, the labeled extracts for a single experiment were pooled and filtered through Amicon Ultracel-10 K units. It is important to ensure that only N-terminal amines and lysine side-chain amines of peptides are TMAB-labeled and not tyrosines. To hydrolyze any labeled tyrosine, 30 µL of a 2 M solution of hydroxylamine hydrochloride (pH 3.7) was added over three rounds to the pooled and filtered sample. The pH was measured after the addition of hydroxylamine and adjusted to 9.0 with 1 M NaOH. The samples were desalted through PepClean C-18 spin columns (Thermo Scientific, Rockford, IL, USA) by following manufacturer’s instructions. Peptides were eluted using 160 µL of 0.5% TFA and 70% acetonitrile, frozen at −80°C and then lyophilized in a vacuum centrifuge and stored at −80°C until analysis by mass spectrometry.
(§7) The LC-MS/MS experiments were performed on a Synapt G2 mass spectrometer coupled to a NanoAcquity capillary liquid chromatography system (Waters Co., Milford, MA, USA).

[5] = test system: SH-SY5Y cells; assay: Quantitative peptidomics (TMAB isotopic labels, LC-MS/MS) of inhibitor-treated SH-SY5Y cells; assay type: cell-based, human; conditions: SH-SY5Y cells, 35 min; 2.5 µM MG132, 1 µM other inhibitors
Protocol: as §5, §6, §7

[6] = test system: tripeptidyl peptidase 2 (TPP2); assay: Ala-Ala-Phe-AMC cleavage (TPP2 substrate) in HEK293T cell extracts; assay type: biochemical, human; conditions: HEK293T cell extract, micromolar concentrations
Protocol: as §1, §2
Enzyme activity was determined by fluorescence measurement of AMC and expressed as percentage enzyme activity relative to the control lacking inhibitor. […]

[7] = target: T2, proteasome (beta 5, chymotrypsin-like activity) in HEK293T cell extract (Homo sapiens, UniProt P20618+P28074); assay: Proteasome activity in HEK293T cell extracts with beta 5-selective substrate Suc-Leu-Leu-Val-Tyr-AMC; assay type: biochemical; conditions: Suc-Leu-Leu-Val-Tyr-AMC, 30 min pre-incubation, 1 hour, read-out: IC50, inhibition of proteasome activity
T2 construct: endogenous in cells; host or cells: HEK293T
Protocol: as §1
To measure proteasome activity, a 1∶50 dilution of the cell extract was pre-incubated with the inhibitor and Buffer 1 for 30 min, followed by addition of 100 µM final concentration of the proteasome substrate succinyl-Leu-Leu-Val-Tyr-7-amino-4-methylcoumarin (Suc-Leu-Leu-Val-Tyr-AMC). After incubation at 37°C for 1 hour, proteasomal activity was quantified by fluorescence measurement of the substrate (380 nm excitation, 460 nm emission).
Figure 2 Inhibition of proteasome activity in HEK293T cells with various proteasome inhibitors. HEK293T cell extract was treated with increasing concentrations of the indicated compound for […] and incubation for 1 hour […]. Enzyme activity was determined by fluorescence measurement of AMC. The resulting activity is expressed as percent enzyme activity relative to the control reaction without inhibitor.

[8] = test system: HEK293T cells; conditions: cited from earlier work
[9] = 35 min, 2.5 µM MG132, 1 µM other inhibitors

T1 sequence (P55786 whole entry): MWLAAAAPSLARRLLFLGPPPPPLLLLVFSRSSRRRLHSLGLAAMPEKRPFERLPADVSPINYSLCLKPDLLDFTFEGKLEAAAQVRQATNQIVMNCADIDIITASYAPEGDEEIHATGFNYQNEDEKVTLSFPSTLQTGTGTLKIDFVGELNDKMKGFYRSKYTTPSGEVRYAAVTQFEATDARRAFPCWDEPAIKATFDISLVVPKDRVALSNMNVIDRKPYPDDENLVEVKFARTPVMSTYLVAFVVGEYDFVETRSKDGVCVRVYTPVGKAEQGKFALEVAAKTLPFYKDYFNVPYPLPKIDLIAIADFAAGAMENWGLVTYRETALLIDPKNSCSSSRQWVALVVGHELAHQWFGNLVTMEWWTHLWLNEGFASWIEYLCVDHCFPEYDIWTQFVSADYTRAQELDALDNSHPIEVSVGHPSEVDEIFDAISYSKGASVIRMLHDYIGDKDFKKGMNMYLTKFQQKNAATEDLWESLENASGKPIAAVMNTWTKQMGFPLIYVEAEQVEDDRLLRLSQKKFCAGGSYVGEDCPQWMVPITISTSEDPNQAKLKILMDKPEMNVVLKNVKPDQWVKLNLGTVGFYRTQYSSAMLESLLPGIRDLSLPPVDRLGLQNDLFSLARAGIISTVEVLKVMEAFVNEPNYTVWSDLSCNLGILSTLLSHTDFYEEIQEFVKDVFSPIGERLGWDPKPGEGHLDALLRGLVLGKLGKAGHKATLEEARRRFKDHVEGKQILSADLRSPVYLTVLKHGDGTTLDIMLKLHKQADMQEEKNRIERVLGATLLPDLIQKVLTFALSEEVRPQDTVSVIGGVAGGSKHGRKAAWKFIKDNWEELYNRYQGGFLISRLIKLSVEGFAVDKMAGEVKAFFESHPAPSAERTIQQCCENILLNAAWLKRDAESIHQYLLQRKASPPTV

SMILES: CC(C)C[C@H](NC(=O)[C@H](CC(C)C)NC(=O)[C@H](CC(C)C)NC(=O)OCc1ccccc1)B(O)O [MG262]
- effect on cleavage of Ala-AMC [1]: inhibit
- effect on cleavage of Leu-AMC [2]: inhibit
- effect on cleavage of Ala-AMC by purified PSAP [3]: inhibitory
- change in levels of intracellular peptides (peptidome) [4, 9]: changes that were generally similar to those caused by 500 nM bortezomib
- change in levels of intracellular peptides (peptidome) [5]: changes that were generally similar to those caused by 500 nM bortezomib

SMILES: CC(C)C[C@H](NC(=O)CNC(=O)c1cc(Cl)ccc1Cl)B(O)O [MLN2238]
- effect on cleavage of Ala-AMC [1]: inhibit
- effect on cleavage of Leu-AMC [2]: inhibit
- effect on cleavage of Ala-AMC by purified PSAP [3]: inhibitory
- change in levels of intracellular peptides (peptidome) [4, 9]: the majority of peptides was greatly decreased

SMILES: CC(C)C[C@H](NC(=O)[C@@H](O)[C@H](N)Cc1ccccc1)C(=O)O [bestatin]
- inhibition of Ala-AMC cleavage [1]: > 80%
- residual amount of activity [1]: ~20%
- Enzyme activity (% control with no inhibitor) ([1]; Ala-AMC, bestatin 500 µM, bortezomib 0): 15.5±0.7 % control with no inhibitor
- inhibition of Leu-AMC cleavage [2]: > 80%

SMILES: CCCCNC(=O)[C@@H]1Cc2ccccc2N1C(=O)[C@@H](N)CC [butabindide, reference compound]
- inhibition of Ala-Ala-Phe-AMC cleavage [6]: Approximately 50%
- change in levels of intracellular peptides (peptidome) ([4]; 100 µM bestatin methyl ester 75 min, 100 µM butabindide 35 or 75 min, bestatin): failed to substantially alter the peptide levels

SMILES: CC(C)[C@H](O)[C@@]12NC(=O)[C@H](C)[C@@H]1OC2=O [clasto-Lactacystin β-lactone, reference compound]
- IC50 [7]: ~10 µM
- change in levels of intracellular peptides (peptidome) [4, 9]: the majority of peptides was greatly decreased

SMILES: CC[C@H](C)[C@H](NC(=O)[C@H]([C@@H](C)CC)N(C)C(C)=O)C(=O)N[C@H](C(=O)N[C@@H](CC(C)C)C(=O)[C@@]1(C)CO1)[C@@H](C)O [epoxomicin]
- change in levels of intracellular peptides (peptidome) ([8]; HEK293T cells, 0.2 µM for 1 hour): the majority of peptides was greatly decreased
- levels of peptides arising from cleavage at beta 1 sites ([8]; cells treated for 1 hour with 2 µM): greatly elevated

SMILES: COc1ccc(C[C@H](N)C(=O)N[C@H]2[C@@H](O)[C@H](n3cnc4c(N(C)C)ncnc43)O[C@@H]2CO)cc1 [puromycin]
- inhibition of Ala-AMC cleavage [1]: > 80%
- residual amount of activity [1]: ~20%
- inhibition of Leu-AMC cleavage [2]: > 80%
- potency on purified PSAP versus HEK293T cell extract ([3]; Ala-AMC and Leu-AMC): comparable

Reference: paper PMC4117522, “Proteasome Inhibitors Alter Levels of Intracellular Peptides in HEK293T and SH-SY5Y Cells” (PLoS ONE, 2014)
